Our source for the IC50 values is ChEMBL document CHEMBL1137979, “Nonpeptidic, noncovalent inhibitors of the cysteine protease cathepsin S” (J Med Chem, 2004).

In one test the target is Cathepsin S (Homo sapiens, UniProt P25774). Description: Inhibitory concentration against human cysteine protease cathepsin S.
Test [1] in a line: Inhibitory concentration against human Li processing. In kind it is functional.

Each structure is given as a SMILES string.

Chain of Cathepsin S (P25774 whole entry): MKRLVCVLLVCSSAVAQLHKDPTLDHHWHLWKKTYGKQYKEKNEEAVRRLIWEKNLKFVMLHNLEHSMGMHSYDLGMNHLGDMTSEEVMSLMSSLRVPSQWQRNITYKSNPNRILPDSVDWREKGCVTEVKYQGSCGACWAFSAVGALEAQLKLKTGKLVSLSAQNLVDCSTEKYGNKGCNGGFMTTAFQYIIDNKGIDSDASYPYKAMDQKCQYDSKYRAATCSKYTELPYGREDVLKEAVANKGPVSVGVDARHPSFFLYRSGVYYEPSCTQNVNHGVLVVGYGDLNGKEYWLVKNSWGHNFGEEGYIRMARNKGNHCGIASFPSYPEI

As a reminder, the IC50 is the concentration at which inhibition is half-maximal. In turn, `CC(=O)N1CCc2c(c(-c3ccc(Cl)cc3)nn2CC(O)CN2CCN(c3ccccc3Cl)CC2)C1` (configuration not stated) displayed an IC50 on Cathepsin S of 1 µM. As to `N#Cc1ccccc1N1CCN(CC(Cn2nc(-c3ccc(I)cc3)c3c2CCN(C(N)=O)C3)OC(N)=O)CC1` (configuration not stated), the IC50 in test [1] was found to be 0.88 µM; against Cathepsin S, 0.02 µM. `CC(=O)N1CCc2c(c(-c3ccc(Cl)cc3)nn2CC(O)CN2CCN(C(c3ccc(F)cc3)c3ccc(F)cc3)CC2)C1` (configuration not stated) had an IC50 at Cathepsin S of 1 µM. This lies in the single-digit micromolar range. Take `COc1ccccc1N1CCN(CCCCn2nc(-c3ccc(Cl)cc3)c3c2CCN(C(C)=O)C3)CC1`: at Cathepsin S, it took 9.5 µM to reach half-maximal inhibition (IC50).

Regarding `Cc1ccccc1N1CCN(CC(O)Cn2nc(-c3ccc(I)cc3)c3c2CCN(C(N)=O)C3)CC1` (configuration not stated), the IC50 against Cathepsin S was 14 µM. On the same count and under the same terms, the same measure for `COc1ccccc1N1CCN(CC(O)Cn2nc(-c3ccc(I)cc3)c3c2CCN(C(C)=O)C3)CC1` (configuration not stated): 0.6 µM.
